# Patent publication US12371748B2, “Genetic markers for predicting responsiveness to therapy with HDL-raising or HDL mimicking agent” (Hoffmann-La Roche Inc., priority 2014, dated 2025)
# Tested on: patients with evidence of coronary artery disease
# Assay: dal-PLAQUE-2: change in carotid intima-media thickness (B-mode ultrasound) by ADCY9 genotype
# Format: in vivo, human
# From the text: The dal-PLAQUE-2 study (Tardif J C et al, Circulation Cardiovascular imaging 2011; 4:319-33) was a phase 3b multicenter, double-blind, randomized, placebo-controlled, parallel group trial designed to evaluate the effect of dalcetrapib on atherosclerotic disease progression in patients with evidence of coronary artery disease and carotid intima media thickness of at least 0.65 mm in the far wall of the common carotid arteries, as assessed by B-mode ultrasonography. A total of 931 patients were randomized to receive dalcetrapib 600 mg daily or matching placebo with intended treatment duration of 24 months. However, the trial was terminated prematurely concurrent with the termination of dal OUTCOMES (the latter due to futility). Patients continued study medication until they returned for follow-up carotid imaging at 12 months. Carotid B-mode ultrasound recordings at baseline, month 6, and month 12 were analyzed centrally at the core laboratory of the Montreal Heart Institute. Intima-media thickness (IMT) was analyzed on the far wall of the common carotid arteries. A segment of 10 mm in length of the common carotid artery was analyzed on serial examinations using an automated edge detection software (Carotid Analyzer, Medical Imaging Applications, Coralville, Iowa). Among the 411 participants in the dal-PLAQUE-2 trial who consented to the genetic study, 386 had imaging measures at baseline, 6 months and 12 months (194 and 192 in the dalcetrapib and placebo arms respectively). DNA was extracted from whole blood. The research protocols were approved by the relevant institutional review boards or ethics committees and all human participants gave written informed consent.
# All acquired carotid ultrasound recordings were analyzed at the core laboratory of the Montreal Heart Institute by experienced technicians supervised by a physician. Images were required to meet quality and inclusion and exclusion criteria for eligibility prior to random assignment to study treatment. The methods for carotid intima-media thickness analysis included side-by-side viewing of baseline and follow-up studies.
# Carotid arterial wall segments were assessed in a longitudinal view, perpendicular to the ultrasound beam, with a horizontal display of the arterial image in order to view the interfaces between blood and vascular structures on the longest possible segment. The localization of the end of the common carotid artery was used as the landmark in repositioning and analyzing comparative length of segments in baseline and follow-up studies. Intima-media thickness was analyzed on the far wall of the right and left common carotid arteries, to reduce variability of measurements. The average of the mean intima-media thickness values of the right and left common carotid arteries was used. A matched segment of 10 mm in length of the common carotid artery was analyzed on serial examinations (baseline, 6 months and 12 months), starting 5 mm proximal to the carotid bifurcation. The edge detection software Carotid Analyzer (Medical Imaging Applications LLC, Coralville, Iowa) was used to analyze intima-media thickness using the automated option. Two sets of carotid artery borders were identified: First, the media-adventitia borders were determined and verified by the reader. When required, their locations were semi-automatically modified to the correct location. When these borders were approved, the lumen-intima boundaries were automatically detected using the media-adventitia borders for guidance. Frames from looped sequences of intima-media thickness were selected for reading, and poor quality outlier frames were removed from the analysis when required.
# For the dal-Plaque-2 population, mixed regression models for repeated measures analysis were tested in SAS software. The dal-Plaque-2 tested endpoint was the mean of IMT measures of common carotid arteries at the 6-month and the 12-month visits, using the baseline measure as covariate. […]
smiles,measurement,setting,value
"CCC(CC)CC1(C(=O)Nc2ccccc2SC(=O)C(C)C)CCCCC1 [dalcetrapib, thioisobutyric acid S-(2-{[1-(2-ethyl-butyl)-cyclohexanecarbonyl]-amino}-phenyl) ester]","Change from baseline in carotid intima-media thickness, Mean","rs8061182, homozygotes for minor allele, M12",−0.001 mm
same,"Change from baseline in carotid intima-media thickness, Mean","rs11647778, heterozygotes, M06",−0.002 mm
same,"Change from baseline in carotid intima-media thickness, Mean","rs11647778, heterozygotes, M12",0.001 mm
same,"Change from baseline in carotid intima-media thickness, Mean","rs11647778, homozygotes for major allele, M06",0.011 mm
same,"Change from baseline in carotid intima-media thickness, Mean","rs11647778, homozygotes for major allele, M12",0.008 mm
same,"Change from baseline in carotid intima-media thickness, Mean","rs11647778, homozygotes for minor allele, M06",−0.013 mm
same,"Change from baseline in carotid intima-media thickness, Mean","rs11647778, homozygotes for minor allele, M12",−0.026 mm
same,"Change from baseline in carotid intima-media thickness, Mean","rs11647828, heterozygotes, M06",−0.002 mm
same,"Change from baseline in carotid intima-media thickness, Mean","rs11647828, heterozygotes, M12",−0.003 mm
same,"Change from baseline in carotid intima-media thickness, Mean","rs11647828, homozygotes for major allele, M06",0.011 mm
same,"Change from baseline in carotid intima-media thickness, Mean","rs11647828, homozygotes for major allele, M12",0.009 mm
same,"Change from baseline in carotid intima-media thickness, Mean","rs11647828, homozygotes for minor allele, M06",−0.018 mm
same,"Change from baseline in carotid intima-media thickness, Mean","rs11647828, homozygotes for minor allele, M12",−0.020 mm
same,"Change from baseline in carotid intima-media thickness, Mean","rs12595857, heterozygotes, M06",−0.003 mm
same,"Change from baseline in carotid intima-media thickness, Mean","rs12595857, heterozygotes, M12",−0.002 mm
same,"Change from baseline in carotid intima-media thickness, Mean","rs12595857, homozygotes for major allele, M06",0.011 mm
same,"Change from baseline in carotid intima-media thickness, Mean","rs12595857, homozygotes for major allele, M12",0.010 mm
same,"Change from baseline in carotid intima-media thickness, Mean","rs12595857, homozygotes for minor allele, M06",−0.008 mm
same,"Change from baseline in carotid intima-media thickness, Mean","rs12595857, homozygotes for minor allele, M12",−0.018 mm
same,"Change from baseline in carotid intima-media thickness, Mean","rs12599911, heterozygotes, M06",−0.003 mm
same,"Change from baseline in carotid intima-media thickness, Mean","rs12599911, heterozygotes, M12",−0.002 mm
same,"Change from baseline in carotid intima-media thickness, Mean","rs12599911, homozygotes for major allele, M06",0.011 mm
same,"Change from baseline in carotid intima-media thickness, Mean","rs12599911, homozygotes for major allele, M12",0.010 mm
same,"Change from baseline in carotid intima-media thickness, Mean","rs12599911, homozygotes for minor allele, M06",−0.008 mm
same,"Change from baseline in carotid intima-media thickness, Mean","rs12599911, homozygotes for minor allele, M12",−0.019 mm
same,"Change from baseline in carotid intima-media thickness, Mean","rs12920508, heterozygotes, M06",−0.003 mm
same,"Change from baseline in carotid intima-media thickness, Mean","rs12920508, heterozygotes, M12",−0.001 mm
same,"Change from baseline in carotid intima-media thickness, Mean","rs12920508, homozygotes for major allele, M06",0.006 mm
same,"Change from baseline in carotid intima-media thickness, Mean","rs12920508, homozygotes for major allele, M12",0.005 mm
same,"Change from baseline in carotid intima-media thickness, Mean","rs12920508, homozygotes for minor allele, M06",−0.005 mm
same,"Change from baseline in carotid intima-media thickness, Mean","rs12920508, homozygotes for minor allele, M12",−0.021 mm
same,"Change from baseline in carotid intima-media thickness, Mean","rs12935810, heterozygotes, M06",−0.003 mm
same,"Change from baseline in carotid intima-media thickness, Mean","rs12935810, heterozygotes, M12",−0.001 mm
same,"Change from baseline in carotid intima-media thickness, Mean","rs12935810, homozygotes for major allele, M06",−0.006 mm
same,"Change from baseline in carotid intima-media thickness, Mean","rs12935810, homozygotes for major allele, M12",−0.007 mm
same,"Change from baseline in carotid intima-media thickness, Mean","rs12935810, homozygotes for minor allele, M06",0.021 mm
same,"Change from baseline in carotid intima-media thickness, Mean","rs12935810, homozygotes for minor allele, M12",0.010 mm
same,"Change from baseline in carotid intima-media thickness, Mean","rs13337675, heterozygotes, M06",0.002 mm
same,"Change from baseline in carotid intima-media thickness, Mean","rs13337675, heterozygotes, M12",0.005 mm
same,"Change from baseline in carotid intima-media thickness, Mean","rs13337675, homozygotes for minor allele, M06",0.016 mm
same,"Change from baseline in carotid intima-media thickness, Mean","rs13337675, homozygotes for minor allele, M12",−0.011 mm
same,"Change from baseline in carotid intima-media thickness, Mean","rs17136707, heterozygotes, M06",−0.006 mm
same,"Change from baseline in carotid intima-media thickness, Mean","rs17136707, heterozygotes, M12",−0.004 mm
same,"Change from baseline in carotid intima-media thickness, Mean","rs17136707, homozygotes for minor allele, M06",−0.015 mm
same,"Change from baseline in carotid intima-media thickness, Mean","rs17136707, homozygotes for minor allele, M12",−0.008 mm
same,"Change from baseline in carotid intima-media thickness, Mean","rs74702385, heterozygotes, M06",−0.006 mm
same,"Change from baseline in carotid intima-media thickness, Mean","rs74702385, heterozygotes, M12",−0.002 mm
same,"Change from baseline in carotid intima-media thickness, Mean","rs74702385, homozygotes for minor allele, M06",−0.015 mm
same,"Change from baseline in carotid intima-media thickness, Mean","rs74702385, homozygotes for minor allele, M12",−0.008 mm
same,"Change from baseline in carotid intima-media thickness, Mean","rs111590482, heterozygotes, M06",−0.006 mm
same,"Change from baseline in carotid intima-media thickness, Mean","rs111590482, heterozygotes, M12",−0.002 mm
same,"Change from baseline in carotid intima-media thickness, Mean","rs111590482, homozygotes for minor allele, M06",−0.015 mm
same,"Change from baseline in carotid intima-media thickness, Mean","rs111590482, homozygotes for minor allele, M12",−0.008 mm
